From patent publication US6143492A, “Optical molecular sensors for cytochrome P450 activity” (Aurora Biosciences Corporation, priority 1999, dated 2000)
“And” between values parts separate entries of the source, which are not always exact repeats. Identical values can stand only once.

How the values were obtained:
[1] = target: CYP 2C19 (Homo sapiens, UniProt P33261); experiment: Kinetics of fluorogenic substrates with CYP 2C19; type: biochemical; conditions: for type of kinetics / conversion to the same fluorescent product vs the most closely structurally-related substrate / kcat / kcat/Km: CYP 2C19; for v (1.25 uM), turnover rate at 1.25 μM: CYP 2C19, substrate 1.25 uM; for v (10 uM), turnover rate at 10 μM: CYP 2C19, substrate 10 uM
[2] = target: CYP 2C9 (Homo sapiens, UniProt P11712); experiment: Kinetics of fluorogenic substrates with CYP 2C9; type: biochemical; conditions: for kcat / kcat/Km / type of kinetics / conversion to the same fluorescent product vs the most closely structurally-related substrate: CYP 2C9; for v (1.25 uM), turnover rate at 1.25 μM: CYP 2C9, substrate 1.25 uM; for v (10 uM), turnover rate at 10 μM: CYP 2C9, substrate 10 uM
[3] = target: T1, CYP 3A4 (Homo sapiens, UniProt P08684); experiment: Kinetics of fluorogenic substrates with CYP 3A4; type: biochemical; conditions: for type of kinetics / conversion to the same fluorescent product vs the most closely structurally-related substrate / kcat / kcat/Km: CYP 3A4; for v (1.25 uM), turnover rate at 1.25 μM: CYP 3A4, substrate 1.25 uM; for v (10 uM), turnover rate at 10 μM: CYP 3A4, substrate 10 uM
T1 construct: NADPH regenerating system
Source text: Whichever of the four abstractable hydrogen atoms (designated H^1 and H^2 in this representation of BOMR) is removed in the initial reaction step, with reference to Reaction Scheme 1 of FIG. 1, the hydroxylation product will spontaneously decompose to the free resorufin dye. In addition, the benzyloxy group, attached to the carbon carrying the two hydrogens designated H^2, contributes an inductive electronic effect on that carbon, which can stabilize the radical formed during abstraction of one of the H^2 hydrogens by a cytochrome P450.
Optimization of assay conditions was, and is preferably, accomplished through statistically validated Design of Experiments methodologies, using the commercial software package "Design-Expert®" produced by Stat-Ease® Inc. The data shown in FIGS. 4 and 5 were obtained with initial optimization.
For further understanding these terms in the context of this invention, attention is directed to FIG. 4 and the analysis of FIG. 4.

[4] = target: T2, CYP 2B6 (Homo sapiens, UniProt P20813)
T2 sequence (P20813 1-491): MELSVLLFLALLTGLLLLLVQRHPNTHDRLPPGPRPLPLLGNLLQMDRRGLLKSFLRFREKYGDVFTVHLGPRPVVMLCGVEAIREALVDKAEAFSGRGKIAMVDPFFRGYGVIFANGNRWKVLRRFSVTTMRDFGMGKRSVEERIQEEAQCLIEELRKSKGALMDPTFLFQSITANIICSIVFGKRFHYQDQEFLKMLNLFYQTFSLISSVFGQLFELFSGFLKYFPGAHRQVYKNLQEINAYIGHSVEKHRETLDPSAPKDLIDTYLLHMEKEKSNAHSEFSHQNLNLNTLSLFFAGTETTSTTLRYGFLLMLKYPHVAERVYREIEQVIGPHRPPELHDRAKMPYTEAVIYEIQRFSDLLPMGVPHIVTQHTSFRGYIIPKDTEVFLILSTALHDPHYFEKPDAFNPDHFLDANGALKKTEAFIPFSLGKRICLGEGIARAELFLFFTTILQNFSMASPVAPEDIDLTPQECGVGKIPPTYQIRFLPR

[5] = target: CYP 2D6 (Homo sapiens, UniProt P10635); experiment: Kinetics of fluorogenic substrates with CYP 2D6; type: biochemical; conditions: for v (1.25 uM), turnover rate at 1.25 μM: CYP 2D6, substrate 1.25 uM; for v (10 uM), turnover rate at 10 μM: CYP 2D6, substrate 10 uM
[6] = in parentheses: from Michaelis-Menten fit (sigmoidal kinetics)

Chain of CYP 2C9 (P11712 whole entry): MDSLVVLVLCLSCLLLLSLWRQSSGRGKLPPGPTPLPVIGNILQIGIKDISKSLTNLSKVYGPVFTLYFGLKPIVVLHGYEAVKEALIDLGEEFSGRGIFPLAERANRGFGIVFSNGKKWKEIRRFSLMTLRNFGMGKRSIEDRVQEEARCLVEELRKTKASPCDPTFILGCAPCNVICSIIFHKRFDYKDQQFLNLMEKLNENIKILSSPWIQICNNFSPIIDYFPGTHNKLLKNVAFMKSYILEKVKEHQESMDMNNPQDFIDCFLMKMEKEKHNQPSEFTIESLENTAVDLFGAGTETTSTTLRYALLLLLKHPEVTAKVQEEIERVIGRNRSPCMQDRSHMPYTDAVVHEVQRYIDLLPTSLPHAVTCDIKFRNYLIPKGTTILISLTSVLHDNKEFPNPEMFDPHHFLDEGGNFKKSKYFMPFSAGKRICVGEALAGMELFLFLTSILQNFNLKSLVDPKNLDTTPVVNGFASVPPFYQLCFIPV
Chain of CYP 2D6 (P10635 whole entry): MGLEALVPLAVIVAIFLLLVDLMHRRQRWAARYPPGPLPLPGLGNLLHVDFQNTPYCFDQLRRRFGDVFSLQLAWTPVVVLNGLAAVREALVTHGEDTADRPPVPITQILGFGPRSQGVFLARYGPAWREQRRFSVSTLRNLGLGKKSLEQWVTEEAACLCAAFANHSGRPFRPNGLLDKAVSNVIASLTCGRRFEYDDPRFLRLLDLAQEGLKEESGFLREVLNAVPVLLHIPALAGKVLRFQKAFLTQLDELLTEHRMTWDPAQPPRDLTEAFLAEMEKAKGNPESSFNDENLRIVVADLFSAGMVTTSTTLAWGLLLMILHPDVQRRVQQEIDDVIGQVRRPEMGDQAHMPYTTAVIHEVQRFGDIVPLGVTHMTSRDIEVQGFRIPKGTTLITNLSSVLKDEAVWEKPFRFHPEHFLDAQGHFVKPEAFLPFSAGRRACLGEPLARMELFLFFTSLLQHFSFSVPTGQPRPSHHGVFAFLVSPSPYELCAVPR
Chain of CYP 2C19 (P33261 whole entry): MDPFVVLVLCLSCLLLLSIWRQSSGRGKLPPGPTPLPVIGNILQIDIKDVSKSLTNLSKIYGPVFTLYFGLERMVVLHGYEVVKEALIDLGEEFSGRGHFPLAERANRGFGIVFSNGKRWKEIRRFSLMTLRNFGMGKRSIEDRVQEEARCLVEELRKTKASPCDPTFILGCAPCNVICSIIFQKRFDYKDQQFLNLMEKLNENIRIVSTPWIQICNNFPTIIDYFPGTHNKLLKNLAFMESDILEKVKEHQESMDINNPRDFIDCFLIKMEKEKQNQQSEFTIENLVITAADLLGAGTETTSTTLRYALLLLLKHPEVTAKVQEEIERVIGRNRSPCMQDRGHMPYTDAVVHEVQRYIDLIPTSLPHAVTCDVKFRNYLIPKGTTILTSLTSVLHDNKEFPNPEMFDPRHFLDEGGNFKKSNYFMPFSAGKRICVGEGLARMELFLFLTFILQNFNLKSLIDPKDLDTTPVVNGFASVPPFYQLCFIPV
T1 sequence (P08684 whole entry): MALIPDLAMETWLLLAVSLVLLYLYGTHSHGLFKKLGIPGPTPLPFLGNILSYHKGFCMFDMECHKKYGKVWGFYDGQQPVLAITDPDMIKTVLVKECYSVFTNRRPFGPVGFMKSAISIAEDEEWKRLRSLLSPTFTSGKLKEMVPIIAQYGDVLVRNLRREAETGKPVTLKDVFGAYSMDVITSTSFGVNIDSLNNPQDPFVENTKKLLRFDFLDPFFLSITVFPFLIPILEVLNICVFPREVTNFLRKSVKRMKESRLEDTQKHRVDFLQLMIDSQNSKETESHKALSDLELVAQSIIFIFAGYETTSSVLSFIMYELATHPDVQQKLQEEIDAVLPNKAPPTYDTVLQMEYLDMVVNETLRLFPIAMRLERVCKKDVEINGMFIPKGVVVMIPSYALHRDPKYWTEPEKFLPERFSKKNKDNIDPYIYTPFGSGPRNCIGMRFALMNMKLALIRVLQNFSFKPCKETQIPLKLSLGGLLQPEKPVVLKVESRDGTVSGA

SMILES | v (1.25 uM), turnover rate at 1.25 μM [1] | v (10 uM), turnover rate at 10 μM [1] | kcat [2] | v (1.25 uM), turnover rate at 1.25 μM [2] | v (10 uM), turnover rate at 10 μM [2] | kcat [1] | kcat/Km [1] | type of kinetics [3] | v (1.25 uM), turnover rate at 1.25 μM [3] | v (10 uM), turnover rate at 10 μM [3] | kcat [3] | kcat/Km [3] | also measured
COc1ccc2cc(C#N)c(=O)oc2c1 [3CMC, 3-cyano-7-methoxycoumarin, reference compound] | 0.01 min⁻¹ | 0.07 min⁻¹ | 0.0067 s⁻¹ | 0.00 min⁻¹ | 0.04 min⁻¹ |  |  |  |  |  |  |  | type of kinetics [1]: linear; kcat/Km [2]: 85 M⁻¹ s⁻¹; type of kinetics [2]: linear
COCOc1ccc2cc(C#N)c(=O)oc2c1 [MOMCC] | 0.14 min⁻¹ | 0.38 min⁻¹ | 0.0033 s⁻¹ | 0.01 min⁻¹ | 0.07 min⁻¹ | 0.0083 s⁻¹ | 2604 M⁻¹ s⁻¹ |  |  |  |  |  | conversion to the same fluorescent product vs the most closely structurally-related substrate [1]: more efficient conversion; type of kinetics [1]: Michaelis-; conversion to the same fluorescent product vs the most closely structurally-related substrate [2]: more efficient conversion; kcat/Km [2]: 167 M⁻¹ s⁻¹; type of kinetics [2]: Michaelis
O=c1cc(C(F)(F)F)c2ccc(OCc3ccccc3)cc2o1 [BFC, 7-Benzyloxy-4-trifluoromethylcoumarin, reference compound] |  |  |  |  |  |  |  | linear | 0.04 min⁻¹ | 0.81 min⁻¹ |  |  | 
O=c1ccc2nc3ccc(OCOCc4ccccc4)cc3oc-2c1 [BOMR, Benzyloxymethylresorufin] |  |  |  |  |  |  |  | Michaelis- | 0.55 min⁻¹ | 0.88 min⁻¹ | 0.0183 s⁻¹ | 13095 M⁻¹ s⁻¹ | conversion to the same fluorescent product vs the most closely structurally-related substrate [3]: more efficient conversion; turnover rate (kcat) ([3]; CYP 3A4, FIG. 4 data): 0.5 s⁻¹; CYP 3A4 turnover rate of BOMR relative to BR ([3]; FIG. 4 data): approximately five times greater; enzymatic efficiency (kcat /Km) of CYP 3A4 towards BOMR relative to BR ([3]; FIG. 4 data): 14 times; conversion to the same fluorescent product vs the most closely structurally-related substrate [4]: more efficient conversion; kcat [4]: 0.013 s⁻¹; kcat/Km [4]: 18265 M⁻¹ s⁻¹; type of kinetics [4]: Michaelis-; v (1.25 uM), turnover rate at 1.25 μM [4]: 0.28 min⁻¹; v (10 uM), turnover rate at 10 μM [4]: 0.71 min⁻¹
COCOc1ccc2nc3ccc(=O)cc-3oc2c1 [MOMR] | 0.06 min⁻¹ | 0.062 min⁻¹ |  |  |  |  |  |  | 0.0083 min⁻¹ | 0.0338 min⁻¹ | 0.001 s⁻¹ | 167 M⁻¹ s⁻¹ | kcat ([5]; CYP 2D6): 0.00567 s⁻¹; kcat/Km ([5]; CYP 2D6): 708 M⁻¹ s⁻¹; v (1.25 uM), turnover rate at 1.25 μM [5]: 0.03396 min⁻¹; v (10 uM), turnover rate at 10 μM [5]: 0.2146 min⁻¹
O=c1cc(C(F)(F)F)c2ccc(OCOCc3ccccc3)cc2o1 [BOMFC] |  |  |  |  |  |  |  | Michaelis- | 0.11 min⁻¹ | 1.41 min⁻¹ | 0.0667 s⁻¹ |  | conversion to the same fluorescent product vs the most closely structurally-related substrate [3]: more efficient conversion
COc1ccc(COc2ccc3c(C(F)(F)F)cc(=O)oc3c2)cc1 [MOBFC] |  |  | 0.00483 s⁻¹ and 0.005 s⁻¹ | 0.02 min⁻¹ | 0.188 min⁻¹ and 0.19 min⁻¹ |  |  | Michaelis- | 0.0214 min⁻¹ and 0.02 min⁻¹ | 0.3453 min⁻¹ and 0.35 min⁻¹ | 0.012 s⁻¹ | 897 M⁻¹ s⁻¹ | conversion to the same fluorescent product vs the most closely structurally-related substrate [2]: more efficient conversion; kcat/Km [2]: 628 M⁻¹ s⁻¹; type of kinetics [2]: Michaelis-; kcat ([5]; CYP 2D6): 0.01 s⁻¹; kcat/Km ([5]; CYP 2D6): 2067 M⁻¹ s⁻¹; type of kinetics ([5]; CYP 2D6): Michaelis-; v (1.25 uM), turnover rate at 1.25 μM [5]: 0.09 min⁻¹; v (10 uM), turnover rate at 10 μM [5]: 0.49 min⁻¹; conversion to the same fluorescent product vs the most closely structurally-related substrate ([5]; CYP 3A4 and CYP 2D6, Table 8): more efficient conversion
CCCCCCCCOCOc1ccc2nc3ccc(=O)cc-3oc2c1 [OOMR, Octyloxymethylresorufin] | 0.1 min⁻¹ | 0.13 min⁻¹ | 0.0067 s⁻¹ | 0.137 min⁻¹ | 0.31 min⁻¹ | 0.00283 s⁻¹ | 4048 M⁻¹ s⁻¹ |  | 0.323 min⁻¹ | 0.601 min⁻¹ | 0.011 s⁻¹ | 7857 M⁻¹ s⁻¹ | kcat/Km [2]: 2564 M⁻¹ s⁻¹
CCOCOc1ccc2nc3ccc(=O)cc-3oc2c1 [EOMR] |  |  |  |  |  |  |  | Michaelis- | 0.03 min⁻¹ | 0.10 min⁻¹ | 0.0017 s⁻¹ |  | conversion to the same fluorescent product vs the most closely structurally-related substrate [3]: more efficient conversion
CC1(C)C2=C(Cl)C(=O)C(Cl)=CC2=Nc2ccc(OCOCc3ccccc3)cc21 [BOMDDAO] |  |  |  |  |  |  |  |  | 0.4402 min⁻¹ | 4.2041 min⁻¹ | 0.1 s⁻¹ | 14286 M⁻¹ s⁻¹ | 
CCN(CC)Cc1cc(=O)oc2cc(OC)ccc12 [DMMC] | 0.03 min⁻¹ | 0.23 min⁻¹ |  |  |  | 0.0067 s⁻¹ | 784 M⁻¹ s⁻¹ |  |  |  |  |  | 
CC(C)Oc1ccc2cc(C#N)c(=O)oc2c1 [IPCC] | 0.027 min⁻¹ | 0.232 min⁻¹ |  |  |  | 0.0325 s⁻¹ | 568 M⁻¹ s⁻¹ |  |  |  |  |  | kcat ([5]; CYP 2D6): 0.0017 s⁻¹; kcat/Km ([5]; CYP 2D6): 93 M⁻¹ s⁻¹; v (1.25 uM), turnover rate at 1.25 μM [5]: 0.0076 min⁻¹; v (10 uM), turnover rate at 10 μM [5]: 0.0378 min⁻¹
N#Cc1cc2ccc(OCOCc3ccccc3)cc2oc1=O [BOMCC, 7-Benzyloxymethyloxy-3-cyanocoumarin] | 0.16 min⁻¹ | 0.68 min⁻¹ | 0.035 s⁻¹ | 0.04 min⁻¹ | 0.42 min⁻¹ | 0.0317 s⁻¹ | 2262 M⁻¹ s⁻¹ | sigmoidal | 0.12 min⁻¹ | 0.98 min⁻¹ |  |  | conversion to the same fluorescent product vs the most closely structurally-related substrate [3]: more efficient conversion; kcat [3, 6]: 0.167 s⁻¹; kcat/Km [3, 6]: 1873 M⁻¹ s⁻¹; conversion to the same fluorescent product vs the most closely structurally-related substrate [1]: more efficient conversion; type of kinetics [1]: Michaelis-; conversion to the same fluorescent product vs the most closely structurally-related substrate [2]: more efficient conversion; type of kinetics [2]: Michaelis-; conversion to the same fluorescent product vs the most closely structurally-related substrate [4]: more efficient conversion; kcat [4]: 1.1 s⁻¹; kcat/Km [4]: 21154 M⁻¹ s⁻¹; type of kinetics [4]: Michaelis-; v (1.25 uM), turnover rate at 1.25 μM [4]: 0.38 min⁻¹; v (10 uM), turnover rate at 10 μM [4]: 3.05 min⁻¹
N#Cc1cc2ccc(OCc3ccccc3)cc2oc1=O [BCC, 7-Benzyloxy-3-cyanocoumarin, reference compound] | 0.02 min⁻¹ | 0.06 min⁻¹ |  | 0.00 min⁻¹ | 0.00 min⁻¹ | 0.0017 s⁻¹ | 234 M⁻¹ s⁻¹ |  |  |  |  |  | type of kinetics [1]: Michaelis-; kcat [4]: 0.0017 s⁻¹; kcat/Km [4]: 1064 M⁻¹ s⁻¹; type of kinetics [4]: Michaelis-; v (1.25 uM), turnover rate at 1.25 μM [4]: 0.04 min⁻¹; v (10 uM), turnover rate at 10 μM [4]: 0.07 min⁻¹
CCCCCCCCOCOc1ccc2cc(C#N)c(=O)oc2c1 [OOMCC] | 0.179 min⁻¹ | 1.043 min⁻¹ |  |  |  | 0.0283 s⁻¹ | 4106 M⁻¹ s⁻¹ |  | 0.2274 min⁻¹ | 0.981 min⁻¹ | 0.0198 s⁻¹ | 4506 M⁻¹ s⁻¹ | 
O=C(OCc1ccccc1)c1c2oc3cc(OCc4ccccc4)ccc3nc-2ccc1=O [BRCBE] |  |  |  |  |  |  |  |  | 0.1992 min⁻¹ | 0.6241 min⁻¹ | 0.0138 s⁻¹ | 5123 M⁻¹ s⁻¹ | 
